From US20220402862A1 (Intellia Therapeutics, Inc., priority 2019, published 2022)
Several values for one entry are separate records, joined by “and”; a condition that tells them apart may be missing. Identical values can stand only once.

Experiments:
[1] = test system: mouse TTR gene; experiment: In vivo editing in mouse liver, sgRNA targeting TTR (G282 or G502), % indel by NGS; design: species or system CD-1 female mice
Outline: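 Female CD-1 mice, 6–10 weeks, given a single i.v. tail-vein dose of LNPs carrying Cas9 mRNA plus TTR sgRNA (G282 or G502), at several dose levels. Liver collected at 6 or 7 days; percent indels = reads with insertions or deletions over total reads, by amplicon NGS.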

[2] = test system: Transthyretin (TTR); experiment: Serum TTR ELISA in mice after LNP dosing; type: in vivo, CD-1 female mice
Outline: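 Serum mouse TTR was quantified by ELISA at 10,000-fold dilution for 0.1 mg/kg and 10,000/2,500-fold for 0.3 mg/kg. Samples came from female CD-1 mice (6–10 weeks) killed 6 or 7 days after a single intravenous LNP dose, usually 0.1 mg/kg.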

[3] = test system: mouse B2M gene; experiment: In vivo editing in mouse liver, sgRNA targeting B2M (G650), % indel by NGS; design: species or system CD-1 female mice; conditions: for Editing Mean % Indel: mouse liver, guide G650, Experiment 104; for Liver editing (%): mouse, experiment 108
Protocol: CD-1 female mice ranging from 6-10 weeks of age were used in each study. Animals were weighed and grouped according to body weight for preparing dosing solutions based on group average weight. LNPs were dosed via the lateral tail vein in a volume of 0.2 mL per animal (approximately 10 mL per kilogram body weight). The animals were periodically observed for adverse effects for at least 24 hours post dose. For studies measuring in vivo editing in liver, CD-1 female mice were dosed at 0.1 mg/kg unless otherwise noted. Animals were euthanized at 6 or 7 days by ex sanguination via cardiac puncture under isoflurane anesthesia. Liver tissue was collected from each animal for DNA extraction and analysis. Blood was collected into serum separator tubes or into tubes containing buffered sodium citrate for plasma as described herein. Cohorts of mice were measured for editing by Next-Generation Sequencing (NGS).
(§1) In brief, to quantitatively determine the efficiency of editing at the target location in the genome, genomic DNA was isolated and deep sequencing was utilized to identify the presence of insertions and deletions introduced by gene editing.
(§2) PCR primers were designed around the target site (e.g., within B2M), and the genomic area of interest was amplified. Additional PCR was performed according to the manufacturer's protocols (Illumina) to add the necessary chemistry for sequencing. The amplicons were sequenced on an Illumina MiSeq instrument. The reads were aligned to the mouse or rat reference genome (e.g., GRCm38) after eliminating those having low quality scores. The resulting files containing the reads were mapped to the reference genome (BAM files), where reads that overlapped the target region of interest were selected and the number of wild type reads versus the number of reads which contain an insertion, substitution, or deletion was calculated.
(§3) The editing percentage (e.g., the “indel efficiency” or “percent indels”) was defined as the total number of sequence reads with insertions or deletions over the total number of sequence reads, including wild type.
We assessed in vivo editing efficiency for materials delivered with formulations including various amine lipid compounds. Editing was measured using either G282 (SEQ ID No: 1) which targets the mouse TTR gene or G650 (SEQ ID No. 2) which targets the mouse B2M gene. Lipids described above were assessed for efficacy through in vivo editing experiments. LNPs were formulated at a 1:1 or 1:1.3 w/w ratio of sgRNA to Cas9 mRNA, and at an N/P ratio of about 6. Molar concentrations of lipids in the lipid component of the LNPs are used at mol % amine lipid/DSPC/cholesterol/PEG-2k-DMG of 50/9/38/3. The final LNPs were characterized to determine the encapsulation efficiency, polydispersity index, and average particle size according to the analytical methods provided above. Analysis of average particle size, polydispersity (PDI), total RNA content and encapsulation efficiency of RNA are shown in Table 2.
Alternatively, Cas9 mRNA of Example 120 was formulated as LNPs with an sgRNA targeting B2M (G650, SEQ ID NO: 2) These LNPs were formulated at a w/w ratio of a sgRNA and Cas9 mRNA as indicated in Table 4. The LNPs were formulated using the cross flow procedure with lipid molar compositions of mol % amine lipid/DSPC/cholesterol/PEG-2k-DMG of 50/9/38/3 and an N/P ratio of 6.0. […]
(§4) CD-1 female mice were dosed i.v. at 0.1, 0.3, or 1 mg/kg and assessed for editing in liver, spleen, and bone marrow.

[4] = test system: mouse B2M gene; experiment: In vivo editing in mouse spleen, G650 sgRNA, % indel by NGS; design: species or system CD-1 female mice; conditions: experiment 108
Protocol: as §1, §2, §3
The in vivo delivery to liver, spleen, and bone marrow was assessed by measuring editing efficiency for materials delivered with formulations including various amine lipid compounds. […] LNPs were formulated at a 1:2 w/w ratio of sgRNA to Cas9 mRNA and at an N/P ratio of about 6. Molar concentrations of lipids in the lipid component of the LNPs are used at mol % amine lipid/DSPC/cholesterol/PEG-2k-DMG of 50/9/38/3. The final LNPs compositions were characterized and analyzed as described in Example 120. Analysis of average particle size, polydispersity (PDI), total RNA content and encapsulation efficiency of RNA are shown in Table 8.
as §4

[5] = LNP i.v. 0.1 mg/kg, guide G282, Experiments 101-103
[6] = LNP i.v. 0.3 mg/kg, guide G282, Experiments 101-103
[7] = mouse serum TTR relative to TSS control, guide G282 experiments
[8] = mouse serum, guide G282 experiments, ELISA
[9] = mouse, LNP i.v. 0.1 mg/kg, guide G282, Experiments 101-103
[10] = mouse, LNP i.v. 0.1 mg/kg, guide G282, Experiments 101-103, relative to TSS control
[11] = mouse, LNP i.v. 0.3 mg/kg, guide G282, Experiments 101-103
[12] = mouse, LNP i.v. 0.3 mg/kg, guide G282, Experiments 101-103, relative to TSS control
[13] = LNP i.v. 0.03 mg/kg, guide G502, Experiment 105
[14] = LNP i.v. 0.1 mg/kg, guide G502, Experiment 105
[15] = mouse, LNP i.v. 0.03 mg/kg, guide G502, Experiment 105
[16] = mouse, LNP i.v. 0.03 mg/kg, guide G502, Experiment 105, relative to TSS control
[17] = mouse, LNP i.v. 0.1 mg/kg, guide G502, Experiment 105
[18] = mouse, LNP i.v. 0.1 mg/kg, guide G502, Experiment 105, relative to TSS control

| Structure (SMILES) | Editing Mean % Indel [1, 5] [%] | Editing Mean % Indel [1, 6] [%] | Serum TTR % TSS [2, 7] | Serum TTR [2, 8] | Serum TTR [2, 9] [µg/mL] | Serum TTR % TSS [2, 10] [%] | Serum TTR [2, 11] [µg/mL] | Serum TTR % TSS [2, 12] [%] | Editing Mean % Indel [1, 13] [%] | Editing Mean % Indel [1, 14] [%] | Serum TTR [2, 15] [µg/mL] | Serum TTR % TSS [2, 16] [%] | Serum TTR [2, 17] [µg/mL] | Serum TTR % TSS [2, 18] [%] | Editing Mean % Indel ([3]; LNP i.v. 0.1 mg/kg) [%] | Editing Mean % Indel ([3]; LNP i.v. 0.3 mg/kg) [%] | Liver editing (%) ([3]; G650, i.v. dose 0.1 mg/kg) | Liver editing (%) ([3]; G650, i.v. dose 0.3 mg/kg) | Liver editing (%) ([3]; G650, i.v. dose 1 mg/kg) | % Editing in Spleen ([4]; G650, i.v. dose 0.1 mg/kg) [%] | further results |
| --- | --- | --- | --- | --- | --- | --- | --- | --- | --- | --- | --- | --- | --- | --- | --- | --- | --- | --- | --- | --- | --- |
| CCCCC/C=C\C/C=C\CCCCCCCC(=O)OCC(COC(=O)CCC(OCCCCCCCC)OCCCCCCCC)COC(=O)NCC1CCCN1CC (stereo not shown) [Compound 40, 3-((4,4-bis(octyloxy)butanoyl)oxy)-2-(((((1-ethylpyrrolidin-2-yl)methyl)carbamoyl)oxy)methyl)propyl (9Z,12Z)-octadeca-9,12-dienoate] | 30.2 | 68.0 | 44% | 393 µg/mL | 443 | 48 | 80 | 9 | – | – | – | – | – | – | – | – | – | – | – | – | – |
| CCCCCCCCCC(C)OC(=O)CCCCCCCC(=O)OCC(COC(=O)CCC(OCCCCCCCC)OCCCCCCCC)COC(=O)OCCCN(CC)CC (stereo not shown) [Compound 94, 1-(344,4-bis(octyloxy)butanoyl)oxy)-2-((((3-(diethylamino)propoxy)carbonyl)oxy)methyl)propyl) 9-(undecan-2-yl) nonanedioate] | – | – | 38% | 286 µg/mL | – | – | – | – | 19.76 | 43.52 | 605 | 55 | 352 | 32 | – | – | – | – | – | – | – |
| CCCCC/C=C\C/C=C\CCCCCCCC(=O)OCC(COC(=O)CCC(OCCCCCCCC)OCCCCCCCC)COC(=O)OCCCN(CC)CC (stereo not shown) [Compound 1, 3-((4,4-bis(octyloxy)butanoyl)oxy)-2-((((3-(diethylamino)propoxy)carbonyl)oxy)methyl)propyl (9Z,12Z)-octadeca-9,12-dienoate, reference compound] | – | – | – | – | – | – | – | – | 9.24 | 47.62 | 931 | 85 | 294 | 27 | 17.8 | 50.3 | 23.74 | 58.48 | 73.6 | 0.62 | % Editing in Spleen ([4]; G650, i.v. dose 0.3 mg/kg): 2.2%; % Editing in Spleen ([4]; G650, i.v. dose 1 mg/kg): 6.26%; Serum TTR % TSS ([2]; mouse serum TTR relative to TSS control, guide G502, i.v. 0.1 mg/kg, 0.1 mg/kg): 53.7% and 37.8%; Serum TTR ([2]; mouse serum, guide G502, i.v. 0.1 mg/kg, 0.1 mg/kg): 593.76 µg/mL and 442 µg/mL; Serum TTR % TSS ([2]; mouse, LNP i.v. 0.1 mg/kg, guide G282, Experiments 101-103, relative to TSS control, 0.1 mg/kg): 79% and 54% and 76%; Serum TTR % TSS ([2]; mouse, LNP i.v. 0.3 mg/kg, guide G282, Experiments 101-103, relative to TSS control, 0.3 mg/kg): 20% and 13% |
| CCCCCCCCCCOC(=O)CCCCCCCC(=O)OCC(COC(=O)CCC(OCCCCCCCC)OCCCCCCCC)COC(=O)OCCCN(CC)CC (stereo not shown) [Compound 59, 1-(3-((4,4-bis(octyloxy)butanoyl)oxy)-2-((((3-(diethylamino)propoxy)carbonyl)oxy)methyl)propyl) 9-decyl nonanedioate] | 32.4 | 63.9 | 40% and 57% and 66% | 367 µg/mL and 431 µg/mL and 604 µg/mL | 300 | 49 | 43 | 7 | 11.8 | 35.64 | 909 | 83 | 467 | 42 | 21.2 | 51.6 | – | – | – | – | – |
| CCCCC/C=C\C/C=C\CCCCCCCC(=O)OCC(COC(=O)CC12CC3CC(CC(C3)C1)C2)COC(=O)OCCCN(CC)CC (stereo not shown) [Compound 107, 3-(2-((3 r,5 r, 7r)-adamantan-1-yl)acetoxy)-2-((((3-(diethylamino)propoxy)carbonyl)oxy)methyl)propyl (9Z,12Z)-octadeca-9,12-dienoate] | – | – | – | – | – | – | – | – | – | – | – | – | – | – | – | – | 0.52 | 1.04 | 5.92 | 0.08 | % Editing in Spleen ([4]; G650, i.v. dose 0.3 mg/kg): 0.12%; % Editing in Spleen ([4]; G650, i.v. dose 1 mg/kg): 0.3% |
| CCCCC/C=C\C/C=C\CCCCCCCC(=O)OCC(COC(=O)CCC(OCCCCCCCC)OCCCCCCCC)COC(=O)OCC1CCCN(C)C1 (stereo not shown) [Compound 53, 3-((4,4-bis(octyloxy)butanoyl)oxy)-2-(((((1-methylpiperidin-3-yl)methoxy)carbonyl)oxy)methyl)propyl (9Z,12Z)-octadeca-9,12-dienoate] | 8.6 | 48.2 | 47% | 413 µg/mL | 619 | 67 | 231 | 25 | – | – | – | – | – | – | – | – | – | – | – | – | – |
